In general, IC50 refers to the concentration at which inhibition is half-maximal. The solubility is how much of the substance goes into solution per volume. Low readings indicate a poorly soluble substance, high ones a readily soluble substance. What is called Papp is a coefficient for how fast a substance crosses the barrier. As a reminder, the half-life is how long it takes for the measured level to halve. A lower half-life goes with fast loss.

Here are results for ten molecules from PMC8648984 (Angewandte Chemie (International ed. in English), 2021).

Series [1] in a line: Chiral stability in cell media. The format is physicochemical. The settings on record: 24 hours, 37°C.
In series [2] the target is CRBN (Homo sapiens, UniProt Q96SW2). Description: CRBN fluorescence polarization assay. It is filed as binding. The settings on record: for IC50: read-out: CRBN IC50, fluorescence polarization, Cy5-conjugated lenalidomide probe; for LE (ligand efficiency): from CRBN affinity. A general note: Fluorescence polarisation rises when a labelled molecule tumbles more slowly, as on binding a larger partner.

Series [3] in a line: Aqueous solubility. It is filed as physicochemical. The settings on record: for solubility: aqueous medium (not further specified).
Series [4] has as its system CaCo2 human colon adenocarcinoma cell line. Description: Caco-2 cell permeability. The format is in vitro ADME.
Series [5] in a line: Chemical stability in MV4–11 cell culture media. The settings on record: for t1/2 MV4–11 cell media: pH 7.4, LCMS over 24 hours; for half-life: MV4-11 cell culture media, pH 7.4.
Series [6] in a line: Metabolic stability in mouse liver microsomes. The format is in vitro ADME. In general terms: Liver microsomes are vesicles of endoplasmic reticulum, rich in cytochrome P450 enzymes.
Series [7] in a line: Metabolic stability in human liver microsomes. It is filed as in vitro ADME.
Series [8] can be described thus: Chemical stability in HD-MB03 cell culture media. The settings on record: for t1/2 HD-MB03 cell media: cell media pH 7.7; for half-life: HD-MB03 cell culture media, pH 7.7. It is filed as physicochemical.
Series [9] in a line: Stability in phosphate-buffered saline. The format is physicochemical.
Series [10] can be described thus: Caco-2 cell permeability. The format is in vitro ADME, human. The settings on record: human, Caco-2. For orientation: Caco-2 cells form a polarised layer with tight junctions and transporters.
Series [11] concerns HD-MB03 cells. Briefly: HD-MB03 cell viability. It is filed as cell-based, human. The settings on record: read-out: HD-MB03 IC50.
In series [12] the test system is MV4–11 cells. Briefly: MV4–11 cell viability. It is filed as cell-based, human. The settings on record: read-out: MV4–11 IC50; 3 days incubation, CellTiter-Glo.
The conditions of series [13]: cited from earlier work.
Series [14] has as its target BRD2 (Homo sapiens, UniProt P25440). Description: BRD2 protein degradation in MV4–11 cells. The format is cell-based. The settings on record: 100 nM, 4-hour incubation.
Series [15] deals with IKZF1 and CK1α. Briefly: Degradation of classical IMiD neosubstrates. The format is cell-based.
Series [16] can be described thus: Plasma stability. It is filed as in vitro ADME.
Where [17] appears, read: 3 days incubation, CellTiter-Glo.

Values after ≈ are worked out from the molar mass of the structure shown. Values joined by “and” are separate entries in the source; they are usually repeats but may differ in a detail not shown here. Identical values can stand only once. Like-named read-outs stand apart in the source and are kept apart here.

Chain of CRBN (Q96SW2 whole entry, species assumed): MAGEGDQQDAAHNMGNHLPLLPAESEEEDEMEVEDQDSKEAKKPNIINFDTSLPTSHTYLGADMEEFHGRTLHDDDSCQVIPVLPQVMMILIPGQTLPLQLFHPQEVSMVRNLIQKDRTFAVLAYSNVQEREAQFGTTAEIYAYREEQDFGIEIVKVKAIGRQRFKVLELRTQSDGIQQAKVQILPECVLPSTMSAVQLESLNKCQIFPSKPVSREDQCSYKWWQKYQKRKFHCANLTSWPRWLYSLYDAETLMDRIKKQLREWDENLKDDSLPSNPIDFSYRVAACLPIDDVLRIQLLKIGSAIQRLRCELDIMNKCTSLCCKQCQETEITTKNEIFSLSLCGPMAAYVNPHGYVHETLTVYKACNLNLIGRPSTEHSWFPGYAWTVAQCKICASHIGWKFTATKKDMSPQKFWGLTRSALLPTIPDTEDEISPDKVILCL
Chain of BRD2 (P25440 whole entry): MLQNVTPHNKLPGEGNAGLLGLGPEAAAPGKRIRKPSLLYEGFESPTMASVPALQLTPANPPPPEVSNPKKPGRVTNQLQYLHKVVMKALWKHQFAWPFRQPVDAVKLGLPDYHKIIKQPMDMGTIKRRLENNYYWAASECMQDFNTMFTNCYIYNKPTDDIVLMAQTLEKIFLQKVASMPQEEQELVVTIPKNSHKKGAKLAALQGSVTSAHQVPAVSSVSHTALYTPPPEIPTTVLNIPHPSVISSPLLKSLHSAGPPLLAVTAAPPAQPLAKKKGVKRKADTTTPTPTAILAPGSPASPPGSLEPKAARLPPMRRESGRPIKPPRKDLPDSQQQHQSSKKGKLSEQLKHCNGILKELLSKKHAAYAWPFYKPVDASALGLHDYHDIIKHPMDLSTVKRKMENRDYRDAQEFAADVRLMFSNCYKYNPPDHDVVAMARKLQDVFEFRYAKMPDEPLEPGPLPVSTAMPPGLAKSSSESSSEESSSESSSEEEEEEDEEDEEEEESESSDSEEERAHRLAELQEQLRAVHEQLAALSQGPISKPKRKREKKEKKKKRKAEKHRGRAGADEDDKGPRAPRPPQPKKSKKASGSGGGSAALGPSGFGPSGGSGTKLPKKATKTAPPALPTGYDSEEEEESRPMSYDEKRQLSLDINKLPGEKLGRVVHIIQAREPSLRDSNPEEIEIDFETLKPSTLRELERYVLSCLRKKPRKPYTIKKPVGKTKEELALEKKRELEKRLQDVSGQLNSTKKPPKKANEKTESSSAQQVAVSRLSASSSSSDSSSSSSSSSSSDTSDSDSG

As for `COc1ccc([C@@H]2CCC(=O)NC2=O)cc1` [(S)-2b], the chiral inversion in series [1] (HD-MB03 cell media) is reported as 24%; in series [1] (MV4–11 cell media), 13%. Besides, the IC50 in [2] was > 25 µM.
As to `Nc1ccc(C2CCC(=O)NC2=O)cc1` (centres unmarked) [2c], the “Sol. (aqueous solubility)” value in [3] was found to be 148.5 ± 4.7 µM. The “CaCo2 Papp” value in [4] turned out to be 15.72 ± 0.94 ×10⁻⁶ cm/s. Further, in series [5] (37°C), the “t1/2 MV4–11 cell media” value is reported as >24 h. In addition, the “t1/2 mLM” value in series [6] (microsomes) was 23.19 ± 1.63 h. For the same molecule, in series [2], the “LE (ligand efficiency)” value turned out to be 0.64 and the IC50 was 0.123 ± 0.066 µM. In addition, the “t1/2 hLM” value in series [7] (microsomes) worked out at 15.66 ± 4.78 h. Further, in series [8], the “t1/2 HD-MB03 cell media” value stood at 16.4 ± 0.3 h. Also, in series [9], the “t1/2 PBS” value is recorded as >48 h.
Take `Nc1cccc2c1C(=O)N(C1CCC(=O)NC1=O)C2=O` (centres unmarked) [1c, pomalidomide]: the concentration in solution in [3] (solubility) came to 84.6 ± 2.3 µM (≈ 23.1 µg/mL). The Papp in [10] was found to be 36 ± 1.39 ×10⁻⁶ cm/s. Besides, the half-life is 12.2 ± 0.5 h in series [5]; 7.8 ± 0.69 h in series [6] (liver microsomes); > 24 h in [7] (liver microsomes); 5.4 ± 0.7 h in series [8]; 32.5 ± 1 h in series [9].
`COc1ccc(C2CCC(=O)NC2=O)cc1` (centres unmarked) [2b]: the “Sol. (aqueous solubility)” value in series [3] was 89.0 ± 1.8 µM. Moreover, in [4], the “CaCo2 Papp” value worked out at 81.8 ± 25.14 ×10⁻⁶ cm/s. The “t1/2 MV4–11 cell media” value in [5] (37°C) is given as >24 h. In [2], the “LE (ligand efficiency)” value is 0.48; the IC50 is 3.15 µM and 3.16 µM. Also, the “t1/2 hLM” value in series [7] (microsomes) is given as >24 h. Moreover, in [8], the “t1/2 HD-MB03 cell media” value amounted to 19.7 ± 0.1 h. For the same molecule, the “t1/2 PBS” value in series [9] is reported as >48 h.
`Nc1cccc2c1CN(C1CCC(=O)NC1=O)C2=O` (centres unmarked) [1b, lenalidomide] yielded a solubility in series [3] of 111 ± 6.2 µM (≈ 28.7 µg/mL). The molecule also yielded a Papp in series [10] of 4 ± 1.02 ×10⁻⁶ cm/s. The half-life in [5] was 11.7 h; in [6] (liver microsomes) it was > 24 h; in series [7] (liver microsomes) it was > 24 h; in [8], 7.6 ± 0.6 h; in series [9] it was 33.6 ± 2.5 h.
With `Cc1sc2c(c1C)C(c1ccc(Cl)cc1)=N[C@@H](CC(=O)OC(C)(C)C)c1nnc(C)n1-2` [JQ1], the figures for the IC50 in series [11] (setting [17]) and in series [12] were 0.265 ± 0.0626 µM and 0.083 ± 0.0103 µM, respectively.
Take `O=C1CCC(c2ccccc2)C(=O)N1` (centres unmarked) [2a, phenyl glutarimide]: the “Sol. (aqueous solubility)” value in [3] was found to be 76.2 ± 0.1 µM. In addition, the IC50 in [11] (setting [17]) and in series [12] was > 7 µM each time. In [4], the “CaCo2 Papp” value stood at 21.55 ± 6.54 ×10⁻⁶ cm/s. Moreover, the “t1/2 MV4–11 cell media” value in [5] (37°C) is recorded as >24 h. In addition, in series [6] (liver microsomes), the “t1/2 mLM” value is recorded as >24 h. Also, the “t1/2 hLM” value in [7] (liver microsomes) is listed as >24 h. Further, the “t1/2 HD-MB03 cell media” value in [8] turned out to be 20.8 ± 0.8 h. In addition, in [9], the “t1/2 PBS” value is listed as >48 h.
Take `COc1ccc([C@H]2CCC(=O)NC2=O)cc1` [(R)-2b]: the results for the chiral inversion in series [1] (HD-MB03 cell media) and in series [1] (MV4–11 cell media) were 21% and 10%, respectively. Also, the IC50 in series [2] came out at 1.41 µM.
Take `O=C1CCC(N2C(=O)c3ccccc3C2=O)C(=O)N1` (centres unmarked) [1a, thalidomide]: the Papp in series [10] is 34.9 ± 1.46 ×10⁻⁶ cm/s. Moreover, the half-life in series [5] is 3.3 ± 0.4 h; in [6] (liver microsomes) it was 3.99 ± 0.01 h; in series [7] (liver microsomes), 4.55 ± 0.61 h; in series [8], 1.8 ± 0.1 h; in series [9], 5.4 ± 0.2 h. In series [5] (MV4–11 cell media, after 6 hours, 37°C), this molecule showed a percentage remaining of 20%. In addition, the level remaining entry in series [5] (MV4–11 cell media, at 24 hours, 37°C) is recorded as “below limits of detection”. The half-life to hydrolysis in series [13] (pH 7) was 11 h; in series [13] (pH 7.4), 5 h; in series [13] (pH 8) it was 1.25 h.
In the case of `Cc1sc2c(c1C)C(c1ccc(Cl)cc1)=N[C@@H](CC(=O)NCCCCNC(=O)COc1cccc3c1C(=O)N(C1CCC(=O)NC1=O)C3=O)c1nnc(C)n1-2` (some centres unmarked) [4a], the “depletion of BRD2 protein” value in series [14] is > 90%. The “degradation of IMiD neosubstrates IKZF1 and CK1α” value in series [15] is “Neither of the two PROTACs degraded classical IMiD neosubstrates”. Also, the “Sol. (aqueous solubility)” value in series [3] is 53.5 ± 0.3 µM. Besides, the IC50 is 1.24 µM in series [11] (setting [17]), > 4 µM in series [11] (7 days incubation) and 0.0061 ± 0.00156 µM in [12]. Further, the “CaCo2 Papp” value in series [4] was 1.16 ± 0.47 ×10⁻⁶ cm/s. The “t1/2 MV4–11 cell media” value in [5] (37°C) came out at 4.2 ± 0.8 h. The “plasma stability t1/2” value in [16] is 3.27 ± 0.25 h. Besides, the “t1/2 mLM” value in [6] (microsomes) was 0.13 ± 0.01 h. Besides, in series [8], the “t1/2 HD-MB03 cell media” value was 2.1 ± 0.3 h. In addition, in series [9], the “t1/2 PBS” value is 12.3 ± 0.6 h.
